This note sets out measurements from PMC8286840, “Identifying SARS-CoV-2 antiviral compounds by screening for small molecule inhibitors of Nsp3 papain-like protease” (Biochemical Journal, 2021).

The target in experiment [1] is T1, SARS-CoV-2 PLpro (nsp3 1564–1878) (Severe acute respiratory syndrome coronavirus 2, UniProt P0DTD1). Kind of experiment: biochemical. On the set-up: FRET-quenched peptide (Pro3) cleavage by PLpro, 10 min pre-incubation, slope over 20 min, normalised to no-compound control. The following applies: read-out: % of control remaining.
Experiment [2] addresses T1, SARS-CoV-2 PLpro (nsp3 1564–1878). Kind of experiment: biochemical. On the set-up: FRET-quenched peptide (Pro3) cleavage by PLpro, 10 min pre-incubation, slope over 20 min, normalised to no-compound control. Particulars: read-out: % of control remaining. This is another data set of the same source.

Where a name gives a salt, the structure may show the parent alone. Read-outs that look alike come from different tables or passages of the source.

As for `CC(C)(C)NCC(O)c1ccccc1Cl` (stereo not shown) [Tulobuterol hydrochloride], in experiment [1] (Well no.=1291, low concentration screen), the remaining activity at 1.25 µM came out at 105%. Moreover, the remaining activity at 3.75 µM in experiment [2] (Well no.=1291, high concentration screen) was 106%.
Take `CC(C)(C)NCC(O)c1ccccc1Cl` (stereo not shown) [Tulobuterol]: in experiment [1] (Well no.=2027, low concentration screen), the remaining activity at 1.25 µM came to 98.5%. Moreover, in experiment [2] (Well no.=2027, high concentration screen), the remaining activity at 3.75 µM was 100%.
Turning to `CC(=O)N[C@H]1[C@@H](O[C@@H]2O[C@H](C[C@@H](O)[C@@H]3O[C@H](n4ccc(=O)[nH]c4=O)[C@@H](O)[C@H]3O)[C@H](O)[C@H](O)[C@H]2NC(=O)/C=C/CCCCCCCCCCC(C)C)O[C@H](CO)[C@@H](O)[C@@H]1O` [Tunicamycin B], the remaining activity at 1.25 µM in experiment [1] (Well no.=3190, low concentration screen) was found to be 104%. Moreover, in experiment [2] (Well no.=3190, high concentration screen), the remaining activity at 3.75 µM was 103%.
As for `O=C(CO)[C@@H](O[C@H]1O[C@H](CO)[C@@H](O)[C@H](O)[C@H]1O)[C@H](O)[C@H](O)CO` [Turanose], the remaining activity at 1.25 µM in experiment [1] (Well no.=6971, low concentration screen) was found to be 92.9%. The remaining activity at 3.75 µM in experiment [2] (Well no.=6971, high concentration screen) came to 98.6%.
As to `CC[C@H]1OC(=O)C[C@@H](O)[C@H](C)[C@@H](O[C@@H]2O[C@H](C)[C@@H](O[C@H]3C[C@@](C)(O)[C@@H](O)[C@H](C)O3)[C@H](N(C)C)[C@H]2O)[C@@H](CC=O)C[C@@H](C)C(=O)/C=C/C(C)=C/[C@@H]1CO[C@@H]1O[C@H](C)[C@@H](O)[C@@H](OC)[C@H]1OC` [Tylosin tartrate], the remaining activity at 1.25 µM in experiment [1] (Well no.=4985, low concentration screen) is 95.4%. In addition, in experiment [2] (Well no.=4985, high concentration screen), the remaining activity at 3.75 µM came out at 93%.
Turning to `CC[C@H]1OC(=O)C[C@@H](O)[C@H](C)[C@@H](O[C@@H]2O[C@H](C)[C@@H](O[C@H]3C[C@@](C)(O)[C@@H](O)[C@H](C)O3)[C@H](N(C)C)[C@H]2O)[C@@H](CC=O)C[C@@H](C)C(=O)/C=C/C(C)=C/[C@@H]1CO[C@@H]1O[C@H](C)[C@@H](O)[C@@H](OC)[C@H]1OC` [Tylosin], the remaining activity at 1.25 µM in experiment [1] (Well no.=2010, low concentration screen) was determined as 96.7%. In addition, the remaining activity at 3.75 µM in experiment [2] (Well no.=2010, high concentration screen) stood at 97.8%.
Take `CSCC[C@H](NC(=O)[C@H](Cc1ccccc1)NC(=O)CNC(=O)CNC(=O)[C@@H](N)Cc1ccc(O)cc1)C(=O)O` [Tyr-Gly-Gly-Phe-Met-OH]: the remaining activity at 1.25 µM in experiment [1] amounted to 98.2%. The remaining activity at 3.75 µM in experiment [2] is 101%.
On to `NCCc1ccc(O)cc1` [Tyramine], for which, in experiment [1] (Well no.=6541, low concentration screen), the remaining activity at 1.25 µM was found to be 107%. Further, the remaining activity at 3.75 µM in experiment [2] (Well no.=6541, high concentration screen) came out at 101%.
Regarding `N#CC(C#N)=Cc1ccc(O)c(O)c1` [Tyrphostin 23], the remaining activity at 1.25 µM in experiment [1] (Well no.=1341, low concentration screen) was found to be 94.2%. In addition, the remaining activity at 3.75 µM in experiment [2] (Well no.=1341, high concentration screen) came out at 93.9%.
For the molecule `N#CC(C#N)=Cc1cc(O)c(O)c(O)c1` [Tyrphostin 25], the remaining activity at 1.25 µM in experiment [1] (Well no.=1485, low concentration screen) worked out at 90.9%. Also, the remaining activity at 3.75 µM in experiment [2] (Well no.=1485, high concentration screen) amounted to 86.6%.
With `N#C/C(=C\c1ccc(O)c(O)c1)C(N)=S` [Tyrphostin 47], in experiment [1] (Well no.=1276, low concentration screen), the remaining activity at 1.25 µM worked out at 97.8%. The remaining activity at 3.75 µM in experiment [2] (Well no.=1276, high concentration screen) worked out at 99.6%.
Take `N#CC(C#N)=C(N)/C(C#N)=C/c1cc(O)c(O)c(O)c1` [Tyrphostin 51]: the remaining activity at 1.25 µM in experiment [1] (Well no.=1324, low concentration screen) was 96.8%. Also, the remaining activity at 3.75 µM in experiment [2] (Well no.=1324, high concentration screen) was 95.8%.
With `CC(C)(C)c1cc(C=C(C#N)C#N)cc(C(C)(C)C)c1O` [Tyrphostin A9], the remaining activity at 1.25 µM in experiment [1] (Well no.=1426, low concentration screen) worked out at 99.8%. For the same molecule, the remaining activity at 3.75 µM in experiment [2] (Well no.=1426, high concentration screen) was 101%.
In the case of `COc1cc(C=C(C#N)C#N)cc(O)c1O` [Tyrphostin AG 34], the remaining activity at 1.25 µM in experiment [1] (Well no.=1387, low concentration screen) is 102%. In addition, in experiment [2] (Well no.=1387, high concentration screen), the remaining activity at 3.75 µM was determined as 101%.
Turning to `N#CC(C#N)=C(N)/C(C#N)=C/c1ccc(O)cc1` [Tyrphostin AG 112], the remaining activity at 1.25 µM in experiment [1] (Well no.=1245, low concentration screen) was found to be 95.9%. In experiment [2] (Well no.=1245, high concentration screen), the remaining activity at 3.75 µM amounted to 95.9%.
Turning to `N#CC(C#N)=Cc1ccc([N+](=O)[O-])c(O)c1` [Tyrphostin AG 126], the remaining activity at 1.25 µM in experiment [1] (Well no.=1518, low concentration screen) turned out to be 100%. In addition, the remaining activity at 3.75 µM in experiment [2] (Well no.=1518, high concentration screen) was 95.4%.
`N#C/C(=C\c1ccc(O)c(O)c1)C(=O)NCc1ccccc1` [Tyrphostin AG 490]: the remaining activity at 1.25 µM in experiment [1] (Well no.=1381, low concentration screen) was determined as 101%. In experiment [2] (Well no.=1381, high concentration screen), the remaining activity at 3.75 µM is 102%.
In the case of `C[C@@H](NC(=O)/C(C#N)=C/c1ccc(O)c(O)c1)c1ccccc1` [Tyrphostin AG 527], in experiment [1] (Well no.=1431, low concentration screen), the remaining activity at 1.25 µM was 97.8%. Also, in experiment [2] (Well no.=1431, high concentration screen), the remaining activity at 3.75 µM came out at 100%.
In the case of `N#C/C(=C\c1ccc(O)c(O)c1)C(=O)N1CCc2ccccc21` [Tyrphostin AG 528], in experiment [1] (Well no.=1193, low concentration screen), the remaining activity at 1.25 µM worked out at 92.5%. For the same molecule, in experiment [2] (Well no.=1193, high concentration screen), the remaining activity at 3.75 µM came to 93.3%.
Turning to `N#C/C(=C\c1ccc(O)c(O)c1)C(=O)NCCCNC(=O)/C(C#N)=C/c1ccc(O)c(O)c1` [Tyrphostin AG 537], in experiment [1] (Well no.=1289, low concentration screen), the remaining activity at 1.25 µM came to 103%. In experiment [2] (Well no.=1289, high concentration screen), the remaining activity at 3.75 µM is 99.7%.
`N#C/C(=C\c1ccc(O)c(O)c1)C(=O)c1ccc(O)c(O)c1` [Tyrphostin AG 538]: the remaining activity at 1.25 µM in experiment [1] (Well no.=1468, low concentration screen) was 93.5%. The remaining activity at 3.75 µM in experiment [2] (Well no.=1468, high concentration screen) came to 92.4%.
Take `N#C/C(=C\c1ccc(O)c(O)c1)C(=O)NCCCc1ccccc1` [Tyrphostin AG 555]: in experiment [1] (Well no.=1337, low concentration screen), the remaining activity at 1.25 µM was determined as 101%. For the same molecule, in experiment [2] (Well no.=1337, high concentration screen), the remaining activity at 3.75 µM was 98.7%.
As to `N#C/C(=C\c1c[nH]c2ccccc12)C(=O)c1ccc(O)c(O)c1` [Tyrphostin AG 808], in experiment [1] (Well no.=1433, low concentration screen), the remaining activity at 1.25 µM amounted to 98.9%. In addition, the remaining activity at 3.75 µM in experiment [2] (Well no.=1433, high concentration screen) amounted to 97.2%.
In the case of `CC(C)(C)c1cc(/C=C(\C#N)C(N)=S)cc(C(C)(C)C)c1O` [Tyrphostin AG 879], the remaining activity at 1.25 µM in experiment [1] (Well no.=1427, low concentration screen) came to 95.8%. Further, the remaining activity at 3.75 µM in experiment [2] (Well no.=1427, high concentration screen) came out at 85.7%.
For the molecule `COc1cc2ncc(-c3ccccc3)nc2cc1OC` [Tyrphostin AG 1296], the remaining activity at 1.25 µM in experiment [1] (Well no.=1477, low concentration screen) came to 97.5%. Moreover, the remaining activity at 3.75 µM in experiment [2] (Well no.=1477, high concentration screen) stood at 97.9%.
Take `COc1cc2ncnc(Nc3cccc(Cl)c3)c2cc1OC` [Tyrphostin AG 1478]: in experiment [1] (Well no.=1191, low concentration screen), the remaining activity at 1.25 µM was found to be 100%. The remaining activity at 3.75 µM in experiment [2] (Well no.=1191, high concentration screen) amounted to 100%.
As for `CC(C)c1cc(/C=C(\C#N)C(=O)NCCCc2ccccc2)cc(C(C)C)c1O` [Tyrphostin SU 1498], the remaining activity at 1.25 µM in experiment [1] (Well no.=5970, low concentration screen) was determined as 90%. In addition, in experiment [2] (Well no.=5970, high concentration screen), the remaining activity at 3.75 µM came to 89.5%.
Turning to `N#CC(=C(/N)Sc1ccccc1N)/C(C#N)=C(\N)Sc1ccccc1N` [U0126 - 1,4-Diamino-2,3-dicyano-1,4-bis[2-aminophenylthio]butadiene], the remaining activity at 1.25 µM in experiment [1] (Well no.=2346, low concentration screen) was determined as 96.1%. In addition, the remaining activity at 3.75 µM in experiment [2] (Well no.=2346, high concentration screen) turned out to be 96.8%.
Take `N#CC(=C(/N)Sc1ccccc1N)/C(C#N)=C(\N)Sc1ccccc1N` [U0126]: in experiment [1] (Well no.=1240, low concentration screen), the remaining activity at 1.25 µM stood at 99.2%. The remaining activity at 3.75 µM in experiment [2] (Well no.=1240, high concentration screen) worked out at 101%.
As to `C[C@]12C=CC(=O)C=C1CC[C@@H]1C2=CC[C@]2(C)[C@@H](C(=O)CN3CCN(c4cc(N5CCCC5)nc(N5CCCC5)n4)CC3)CC[C@@H]12` [U74389G maleate], the remaining activity at 1.25 µM in experiment [1] (Well no.=3905, low concentration screen) turned out to be 103%. Moreover, in experiment [2] (Well no.=3905, high concentration screen), the remaining activity at 3.75 µM is 98.2%.
With `NS(=O)(=O)c1ccc(NC(=O)Nc2ccc(F)cc2)cc1` [U-104], the remaining activity at 1.25 µM in experiment [1] (Well no.=8246, low concentration screen) was 98%; in experiment [1] (Well no.=8566, low concentration screen) it was 103%. In addition, the remaining activity at 3.75 µM in experiment [2] (Well no.=8246, high concentration screen) was 93.1%; in experiment [2] (Well no.=8566, high concentration screen) it was 103%.
